Literature values as cited in patent publication US20240358692A1, “TREATMENT OF SCLERODERMA” (Aisa Pharma, Inc., priority 2023, published 2024).

Settings: oral dosing; cited from earlier work

## CCOC(=O)C1=C(COCCN)NC(C)=C(C(=O)OC)C1c1ccccc1Cl (stereo not shown) [amlodipine]
  time to achieve maximal plasma concentrations (Tmax): 10 h
